{
  "source": "the Deep4Chem optical property database",
  "experiment": "solvent given as SMILES",
  "data": [
    {"molecule": "COc1ccccc1-c1nc2c3ccccc3c3ccccc3c2n1-c1ccc(C)cc1", "values": [
      {"measurement": "emission maximum", "setting": "in Cc1ccccc1", "result": 371, "unit": "nm"}
    ]},
    {"molecule": "O=Cc1cc(C=O)c2ccc3c(N4CCCCC4)cc(N4CCCCC4)c4ccc1c2c43", "values": [
      {"measurement": "emission maximum", "setting": "in C1COCCO1", "result": 585, "unit": "nm"},
      {"measurement": "emission maximum", "setting": "in CC#N", "result": 602, "unit": "nm"},
      {"measurement": "emission maximum", "setting": "in CC(C)=O", "result": 598, "unit": "nm"},
      {"measurement": "emission maximum", "setting": "in CCCCCC", "result": 557, "unit": "nm"},
      {"measurement": "emission maximum", "setting": "in CCO", "result": 609, "unit": "nm"},
      {"measurement": "emission maximum", "setting": "in CCOC(C)=O", "result": 587, "unit": "nm"},
      {"measurement": "emission maximum", "setting": "in CO", "result": 613, "unit": "nm"},
      {"measurement": "emission maximum", "setting": "in CS(C)=O", "result": 609, "unit": "nm"},
      {"measurement": "emission maximum", "setting": "in Cc1ccccc1", "result": 582, "unit": "nm"},
      {"measurement": "emission maximum", "setting": "in ClCCl", "result": 602, "unit": "nm"}
    ]},
    {"molecule": "CC(C)(C)c1ccc2c(c1)c1cc(C(C)(C)C)ccc1n2-c1cc(-n2c3ccc(C(C)(C)C)cc3c3cc(C(C)(C)C)ccc32)c(-n2c3ccc(C(C)(C)C)cc3c3cc(C(C)(C)C)ccc32)c(C#N)c1-n1c2ccc(C(C)(C)C)cc2c2cc(C(C)(C)C)ccc21", "values": [
      {"measurement": "emission maximum", "setting": "in CCCCCC", "result": 449.25, "unit": "nm"},
      {"measurement": "emission maximum", "setting": "in CCO", "result": 484.15, "unit": "nm"},
      {"measurement": "emission maximum", "setting": "in Cc1ccccc1", "result": 456, "unit": "nm"},
      {"measurement": "emission maximum", "setting": "in ClCCl", "result": 472.48, "unit": "nm"}
    ]},
    {"molecule": "O=C(O)c1ccc2cc3cc(C(=O)O)ccc3cc2c1", "values": [
      {"measurement": "emission maximum", "setting": "in C1CCOC1", "result": 419, "unit": "nm"},
      {"measurement": "emission maximum", "setting": "in CN(C)C=O", "result": 423, "unit": "nm"}
    ]},
    {"molecule": "CCCC1(CCC)c2ccccc2-c2ccc(-c3ccc(C(C)(C)C)cc3)cc21", "values": [
      {"measurement": "emission maximum", "setting": "in C1CCCCC1", "result": 314, "unit": "nm"}
    ]},
    {"molecule": "CCOC(=O)CN1C(=O)C2=C(c3ccc(N4CCCCC4)cc3)N(CC(=O)OCC)C(=O)C2=C1c1ccccc1", "values": [
      {"measurement": "emission maximum", "setting": "in CC#N", "result": 587, "unit": "nm"},
      {"measurement": "emission maximum", "setting": "in CS(C)=O", "result": 601, "unit": "nm"},
      {"measurement": "emission maximum", "setting": "in Cc1ccccc1", "result": 563, "unit": "nm"}
    ]},
    {"molecule": "c1ccc(-n2c3ccccc3c3c2c2ccccc2n3-c2ccccc2)cc1", "values": [
      {"measurement": "emission maximum", "setting": "in Cc1ccccc1", "result": 376, "unit": "nm"}
    ]},
    {"molecule": "N#Cc1c(C#N)c2cc(Cl)ccc2c2ccc(Cl)cc12", "values": [
      {"measurement": "emission maximum", "setting": "in ClC(Cl)Cl", "result": 388, "unit": "nm"}
    ]},
    {"molecule": "c1ccc(C2=C(c3ccccc3)c3cccc4c5c(cc(c34)O2)=NC2CCCCC2N=5)cc1", "note": "(stereo not drawn)", "values": [
      {"measurement": "emission maximum", "setting": "in ClCCl", "result": 545, "unit": "nm"}
    ]},
    {"molecule": "Nc1ccc2c(c1)oc(=O)c1c(=O)oc3ccccc3c12", "values": [
      {"measurement": "emission maximum", "setting": "in CS(C)=O", "result": 534, "unit": "nm"},
      {"measurement": "emission maximum", "setting": "in ClCCl", "result": 498, "unit": "nm"}
    ]},
    {"molecule": "COc1ccc(-c2c3ccccc3c(C#Cc3ccccc3)c3cc4ccccc4cc23)cc1", "values": [
      {"measurement": "emission maximum", "setting": "in ClCCl", "result": 550, "unit": "nm"}
    ]},
    {"molecule": "CC1(C)c2ccccc2N(c2c(F)cc(-c3nnc(-c4ccccc4)o3)cc2F)c2ccccc21", "values": [
      {"measurement": "emission maximum", "setting": "in Cc1ccccc1", "result": 490, "unit": "nm"},
      {"measurement": "emission maximum", "setting": "in O=P(c1ccccc1)(c1ccccc1)c1ccccc1Oc1ccccc1P(=O)(c1ccccc1)c1ccccc1", "result": 495, "unit": "nm"}
    ]},
    {"molecule": "CCCCCCc1ccc2c(/C=N/c3cc(/N=C/c4c(O)ccc5cc(CCCCCC)ccc45)cc(/N=C/c4c(O)ccc5cc(CCCCCC)ccc45)c3)c(O)ccc2c1", "values": [
      {"measurement": "emission maximum", "setting": "in C1CCOC1", "result": 509, "unit": "nm"},
      {"measurement": "emission maximum", "setting": "in CC#N", "result": 507, "unit": "nm"},
      {"measurement": "emission maximum", "setting": "in Cc1ccccc1", "result": 507, "unit": "nm"},
      {"measurement": "emission maximum", "setting": "in ClCCl", "result": 511, "unit": "nm"}
    ]},
    {"molecule": "CC(=O)OC[C@@H]1O[C@H](n2cnc3c2N=CN2Cc4c[n+](C)c(C)nc4N=C32)[C@@H](O)[C@H]1O", "values": [
      {"measurement": "emission maximum", "setting": "in CC#N", "result": 415, "unit": "nm"},
      {"measurement": "emission maximum", "setting": "in CCO", "result": 416, "unit": "nm"},
      {"measurement": "emission maximum", "setting": "in O", "result": 409, "unit": "nm"}
    ]},
    {"molecule": "O=C(c1ccc(N2c3ccccc3Oc3ccccc32)cc1)c1cccc(C(=O)c2ccc(N3c4ccccc4Oc4ccccc43)cc2)c1", "values": [
      {"measurement": "emission maximum", "setting": "in Cc1ccccc1", "result": 566, "unit": "nm"},
      {"measurement": "emission maximum", "setting": "in c1cc(-c2cccc(-n3c4ccccc4c4ccccc43)c2)cc(-n2c3ccccc3c3ccccc32)c1", "result": 541, "unit": "nm"}
    ]},
    {"molecule": "C[C@@]12SC(Cl)=CC1=c1nc(-c3ccc(Cl)cc3)[nH]c1=C1C=C(Cl)S[C@]12C", "values": [
      {"measurement": "emission maximum", "setting": "in CC#N", "result": 449, "unit": "nm"}
    ]},
    {"molecule": "CCOC(=O)C1CC(c2c(C#N)c(C)nn2-c2ccccc2)=CN1c1ccc(Br)cc1", "note": "(stereo not drawn)", "values": [
      {"measurement": "emission maximum", "setting": "in C1CCOC1", "result": 480, "unit": "nm"},
      {"measurement": "emission maximum", "setting": "in C1COCCO1", "result": 480, "unit": "nm"},
      {"measurement": "emission maximum", "setting": "in CC#N", "result": 488, "unit": "nm"},
      {"measurement": "emission maximum", "setting": "in CCCCCCC", "result": 455, "unit": "nm"},
      {"measurement": "emission maximum", "setting": "in CCO", "result": 490, "unit": "nm"},
      {"measurement": "emission maximum", "setting": "in O", "result": 495, "unit": "nm"},
      {"measurement": "emission maximum", "setting": "in OCC(O)CO", "result": 492, "unit": "nm"},
      {"measurement": "emission maximum", "setting": "in OCCO", "result": 495, "unit": "nm"}
    ]},
    {"molecule": "CN(C)c1ccc(C2=[N+]3C(=Nc4c(-c5ccccc5)cc(-c5ccc(N(C)C)cc5)n4[B-]3(F)F)C(c3ccccc3)=C2)cc1", "values": [
      {"measurement": "emission maximum", "setting": "in ClC(Cl)Cl", "result": 823, "unit": "nm"}
    ]},
    {"molecule": "COc1ccc(-c2cc3c(o2)=CC2=Cc4cc5oc(-c6ccc(OC)cc6)cc5n4[B-](F)(F)[N+]=32)cc1", "values": [
      {"measurement": "emission maximum", "setting": "in ClC(Cl)Cl", "result": 683, "unit": "nm"}
    ]},
    {"molecule": "O=C(c1ccccc1)c1cc2ccc1CCc1ccc(cc1-c1ccc(N(c3ccccc3)c3ccccc3)cc1)CC2", "values": [
      {"measurement": "emission maximum", "setting": "in Cc1ccccc1", "result": 492, "unit": "nm"},
      {"measurement": "emission maximum", "setting": "in c1cc(-n2c3ccccc3c3ccccc32)cc(-n2c3ccccc3c3ccccc32)c1", "result": 481.13, "unit": "nm"}
    ]},
    {"molecule": "CN(C)c1ccc(-c2ccc(-c3ncc4ccccn34)cc2)cc1", "values": [
      {"measurement": "emission maximum", "setting": "in ClC(Cl)Cl", "result": 488, "unit": "nm"}
    ]},
    {"molecule": "Cc1ccc(N(c2ccc(C)cc2)c2c3ccccc3c(N(c3ccc(C)cc3)c3ccc(C)cc3)c3ccccc23)cc1", "values": [
      {"measurement": "emission maximum", "setting": "in Cc1ccccc1", "result": 533, "unit": "nm"}
    ]},
    {"molecule": "COC1=[N+]2C(=C(c3ccccc3)c3ccc(OC)n3[B-]2(F)F)C=C1", "values": [
      {"measurement": "emission maximum", "setting": "in CC#N", "result": 628, "unit": "nm"},
      {"measurement": "emission maximum", "setting": "in CCCCCC", "result": 623, "unit": "nm"},
      {"measurement": "emission maximum", "setting": "in CCOC(C)=O", "result": 628, "unit": "nm"},
      {"measurement": "emission maximum", "setting": "in CO", "result": 620, "unit": "nm"},
      {"measurement": "emission maximum", "setting": "in ClCCl", "result": 630, "unit": "nm"}
    ]},
    {"molecule": "CCCCCCOc1ccc(-c2ccc(/C=C/c3cc(/C=C/c4ccc(-c5ccc(OCCCCCC)cc5)cc4)ncn3)cc2)cc1", "values": [
      {"measurement": "emission maximum", "setting": "in ClCCl", "result": 483, "unit": "nm"}
    ]},
    {"molecule": "Oc1c(-c2cccs2)cccc1-c1nc2ccccc2s1", "values": [
      {"measurement": "emission maximum", "setting": "in CCO", "result": 585, "unit": "nm"},
      {"measurement": "emission maximum", "setting": "in ClCCl", "result": 585, "unit": "nm"},
      {"measurement": "emission maximum", "setting": "in O", "result": 587, "unit": "nm"}
    ]},
    {"molecule": "C(=C\\c1ccc(/C=C/c2ccc(N(c3ccccc3)c3ccccc3)cc2)c2nsnc12)/c1ccc(N(c2ccccc2)c2ccccc2)cc1", "values": [
      {"measurement": "emission maximum", "setting": "in C1CCOC1", "result": 637, "unit": "nm"},
      {"measurement": "emission maximum", "setting": "in CCOC(C)=O", "result": 627, "unit": "nm"},
      {"measurement": "emission maximum", "setting": "in CN(C)C=O", "result": 690, "unit": "nm"},
      {"measurement": "emission maximum", "setting": "in Cc1ccccc1", "result": 611, "unit": "nm"},
      {"measurement": "emission maximum", "setting": "in ClC(Cl)Cl", "result": 651, "unit": "nm"},
      {"measurement": "emission maximum", "setting": "in ClCCl", "result": 659, "unit": "nm"}
    ]}
  ]
}
